The results in this text go back to US20060234327A1, “Methods for identifying enzyme inhibitors and protein kinases” (priority 2003, published 2006).

Assay [1] has as its target T1, ALK5 (kinase domain of the TGF-β type I receptor) (Homo sapiens, UniProt P36897).
T1 construct: recombinantly expressed and purified kinase domain of the transforming growth factor (TGF)-β type I receptor; made in house; host or cells: baculovirus expression system
T1 sequence (P36897 205-495 limits assumed): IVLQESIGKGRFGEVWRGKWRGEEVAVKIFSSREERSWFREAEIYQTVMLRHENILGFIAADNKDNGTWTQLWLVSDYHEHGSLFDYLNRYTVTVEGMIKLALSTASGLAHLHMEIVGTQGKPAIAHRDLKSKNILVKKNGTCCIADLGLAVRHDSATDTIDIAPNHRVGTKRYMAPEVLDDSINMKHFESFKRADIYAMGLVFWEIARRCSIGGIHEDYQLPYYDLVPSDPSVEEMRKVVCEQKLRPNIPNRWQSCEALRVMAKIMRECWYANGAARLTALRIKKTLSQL
Put plainly: ^14C-FSBA affinity labeling detected by autoradiography. It counts as binding. As to conditions: ˜20 μM ^14C-FSBA, 1 hour.

Assay [2] has as its target T2, ALK5 (Homo sapiens, UniProt P36897).
T2 construct: recombinantly expressed and purified kinase domain of the transforming growth factor (TGF)-β type I receptor; made in house; host or cells: baculovirus expression system
T2 sequence (P36897 205-495 limits assumed): T1 sequence (P36897 205-495 limits assumed)
Put plainly: FSBA covalent modification and protection by competitors, followed by LC/MS. It counts as binding. As to conditions: for Mass Peak (relative percentage), FSBA-modified ALK5 peak: peak 35,405 Da; for Mass Peak (relative percentage), unmodified ALK5 peak: peak 34,972 Da.

The target of another assay is T3, ALK4 (Homo sapiens, UniProt P36896).
T3 sequence (P36896 24-505): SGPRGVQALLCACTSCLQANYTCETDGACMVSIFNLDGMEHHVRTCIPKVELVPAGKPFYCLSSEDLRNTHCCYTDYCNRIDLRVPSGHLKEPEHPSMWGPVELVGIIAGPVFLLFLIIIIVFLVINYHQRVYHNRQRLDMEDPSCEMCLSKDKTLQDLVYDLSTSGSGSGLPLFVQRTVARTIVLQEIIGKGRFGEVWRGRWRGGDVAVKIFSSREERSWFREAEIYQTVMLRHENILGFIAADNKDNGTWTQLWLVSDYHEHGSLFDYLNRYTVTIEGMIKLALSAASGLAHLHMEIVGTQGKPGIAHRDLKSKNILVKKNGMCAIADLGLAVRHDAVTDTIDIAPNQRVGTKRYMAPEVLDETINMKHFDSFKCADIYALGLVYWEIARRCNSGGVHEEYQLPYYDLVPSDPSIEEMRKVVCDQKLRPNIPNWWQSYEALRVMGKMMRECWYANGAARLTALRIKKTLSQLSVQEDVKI
The description is as above. Format: binding. As to conditions: for Mass Peak (relative percentage), unmodified ALK4 peak: peak 35,025 Da; for Mass Peak (relative percentage), FSBA-modified ALK4 peak: peak 35,459 Da.

For a further assay, the target named is CDK2 (Homo sapiens, UniProt P24941). Described as above. It counts as binding. As to conditions: for Mass Peak (relative percentage), unmodified CDK2 peak: peak 33,971 Da; for Mass Peak (relative percentage), FSBA-modified CDK2 peak: peak 34,404 Da.
For assay [3], the target named is T2, ALK5. Put plainly: Biotin-FSBA binding and competition detected by Western blot (avidin-HRP). As to conditions: biotin-FSBA 20 μM. In general terms: In western blotting, separated proteins are transferred to a membrane and probed.
For assay [4], the system named is proteins in HeLa cell lysate. Put plainly: Profiling kinases from complex proteome with biotin-FSBA, Western blot. Format: binding.

Take `Nc1ncnc2c1ncn2[C@@H]1O[C@H](COP(=O)(O)OP(=O)(O)OP(=O)(O)O)[C@@H](O)[C@H]1O` [ATP]: the “Effect of ATP on ^14C-FSBA labeling of ALK5 by autoradiography” value is “most of the labeling was blocked” in assay [1] (1 mM ATP) and “autoradiograph did not detect ^14C-FSBA binding” in assay [1] (10 mM ATP). Further, the “Mass Peak (relative percentage), FSBA-modified ALK5 peak” value at ALK5 [2] (FSBA 10 μM plus ATP 50 μM) was 35,405 Da (100%); at ALK5 [2] (FSBA 10 μM plus ATP 100 μM), 35,405 Da (70%),. Besides, the “Mass Peak (relative percentage), unmodified ALK5 peak” value on ALK5 [2] (FSBA 10 μM plus ATP 100 μM) is on record as 34,972 Da (30%); on ALK5 [2] (FSBA 10 μM plus ATP 500 μM), 34,972 Da (100%). Moreover, at ALK5 [2] (FSBA 10 μM, LC/MS), the “ATP concentration at which most of the covalent modification of ALK5 by FSBA was inhibited” value stood at 0.5 mM. The “Mass Peak (relative percentage), unmodified ALK4 peak” value on ALK4 (FSBA 10 μM plus ATP 50 μM) is 35,025 Da (5%); on ALK4 (FSBA 10 μM plus ATP 100 μM), 35,025 Da (30%); at ALK4 (FSBA 10 μM plus ATP 500 μM), 35,025 Da (100%). Moreover, the results for the “Mass Peak (relative percentage), FSBA-modified ALK4 peak” value at ALK4 (FSBA 10 μM plus ATP 50 μM) and on ALK4 (FSBA 10 μM plus ATP 100 μM) were 35,459 Da (95%), and 35,459 Da (70%),, respectively. For the same molecule, the “ATP concentration at which most of the covalent modification of ALK4 by FSBA was inhibited” value at ALK4 (FSBA 10 μM, LC/MS) was 0.5 mM. Moreover, the “Mass Peak (relative percentage), unmodified CDK2 peak” value at CDK2 (FSBA 10 μM plus ATP 1 mM) was 33,971 Da (20%); on CDK2 (FSBA 10 μM plus ATP 5 mM) it was 33,971 Da (90%); at CDK2 (FSBA 10 μM plus ATP 10 mM), 33,971 Da (100%). For the same molecule, the figures for the “Mass Peak (relative percentage), FSBA-modified CDK2 peak” value on CDK2 (FSBA 10 μM plus ATP 1 mM) and on CDK2 (FSBA 10 μM plus ATP 5 mM) were 34,404 Da (80%), and 34,404 Da (10%),, respectively. In addition, the “ATP concentration necessary to block FSBA binding to CDK2” value on CDK2 (FSBA 10 μM, LC/MS) stood at 5 mM. Moreover, on ALK5 [3], the “ATP concentration at which biotin-FSBA/ALK5 bands were no longer visible” value is given as no less than 1.0 mM.

Consider `CN[C@@H]1C[C@H]2O[C@@](C)([C@@H]1OC)n1c3ccccc3c3c4c(c5c6ccccc6n2c5c31)C(=O)NC4` [staurosporine], for which the “Effect of staurosporine on FSBA binding to ALK5” value on ALK5 [2] was “essentially blocked”. Also, the “Effect of staurosporine on FSBA binding to ALK4” value on ALK4 was “essentially blocked”. The “Effect on biotin-FSBA band intensity in HeLa cell lysate” value in assay [4] (80 μg lysate, 500 μM staurosporin 2 hours, then biotin-FSBA 20 μM 4 hours, Western blot (Example 12)) was “reduced intensity in selective bands”; in assay [4] (staurosporin 500 μM 2 hours, then biotin-FSBA 4 hours, Western blot (Example 11)) it was “dramatic decrease in band intensity for selected bands”.

As for `C[C@@H](N)[C@H]1CC[C@H](C(=O)Nc2ccncc2)CC1` [Y-27632], at ALK5 [2] (5 μg ALK5, FSBA 40 μM, about 2 hours, LC/MS), the “Effect on FSBA binding to ALK5” value is “had no effect on FSBA binding to ALK5”. At ALK5 [2] (10 μg ALK5, 10 μM FSBA, 3 hours at room temperature, LC/MS), the “Effect on FSBA labeling of ALK5” value is “did not inhibit FSBA labeling of ALK5”. In addition, in the assay on human ROCK1 (hROCK1), the “Effect on FSBA labeling of ROCK1” value was “abrogated FSBA labeling of ROCK1”, the “Inhibition of FSBA labeling of hROCK1” value is reported as “inhibits hROCK1 at a 1:1 ratio” and the “Mode of action on hROCK1” value is “competitive inhibitor of hROCK1”.
